From the NIST ThermoML archive (doi:10.1016/j.jct.2005.06.011)
± gives the expanded uncertainty stated by the source.

How the values were obtained:
[1] = 101 kPa, Liquid; for speed of sound: Linear variable-path acoustic interferometer
[2] = refractive index (Na D-line) (dimensionless); conditions: 101.33 kPa, Liquid
[3] = xn = mol fraction of the nth substance listed; conditions: 101 kPa, Liquid; for speed of sound: Linear variable-path acoustic interferometer
[4] = refractive index (Na D-line) (dimensionless); xn = mol fraction of the nth substance listed; conditions: 101 kPa, Liquid

CC(C)CO [2-methyl-1-propanol]
Conditions | mass density, 298.15 K [kg/m3] | mass density, 303.15 K [kg/m3] | mass density, 308.15 K [kg/m3] | refractive index, 298.15 K | refractive index, 303.15 K | refractive index, 308.15 K | speed of sound, 298.15 K [m/s] | viscosity, 298.15 K [mPa·s] | viscosity, 303.15 K [mPa·s] | viscosity, 308.15 K [mPa·s]
[1] | 809.31 ± 8.1 | 805.23 ± 8.1 | 801.11 ± 8 | – | – | – | 1170 ± 4 | 3.097 ± 0.038 | 2.635 ± 0.032 | 2.249 ± 0.028
[2] | – | – | – | 1.3932 ± 0.0013 | 1.3917 ± 0.0013 | 1.3896 ± 0.0013 | – | – | – | –

CC(C)CCO [3-methylbutan-1-ol]
Conditions | mass density, 298.15 K [kg/m3] | mass density, 303.15 K [kg/m3] | mass density, 308.15 K [kg/m3] | refractive index, 298.15 K | refractive index, 303.15 K | refractive index, 308.15 K | speed of sound, 298.15 K [m/s] | viscosity, 298.15 K [mPa·s] | viscosity, 303.15 K [mPa·s] | viscosity, 308.15 K [mPa·s]
[1] | 820.17 ± 8.2 | 816.28 ± 8.2 | 812.34 ± 8.1 | – | – | – | 1259 ± 4 | 2.779 ± 0.034 | 2.258 ± 0.028 | 1.844 ± 0.023
[2] | – | – | – | 1.4056 ± 0.0013 | 1.4034 ± 0.0013 | 1.4013 ± 0.0013 | – | – | – | –

CCCCO [butan-1-ol]
Conditions | mass density, 298.15 K [kg/m3] | mass density, 303.15 K [kg/m3] | mass density, 308.15 K [kg/m3] | refractive index, 298.15 K | refractive index, 303.15 K | refractive index, 308.15 K | speed of sound, 298.15 K [m/s] | viscosity, 298.15 K [mPa·s] | viscosity, 303.15 K [mPa·s] | viscosity, 308.15 K [mPa·s]
[1] | 808.49 ± 8.1 | 804.6 ± 8.1 | 800.67 ± 8 | – | – | – | 1268 ± 4 | 2.587 ± 0.032 | 2.254 ± 0.028 | 1.988 ± 0.025
[2] | – | – | – | 1.3983 ± 0.0025 | 1.3959 ± 0.0025 | 1.394 ± 0.0025 | – | – | – | –

CCO [ethanol]
Conditions | mass density, 298.15 K [kg/m3] | mass density, 303.15 K [kg/m3] | mass density, 308.15 K [kg/m3] | refractive index, 298.15 K | refractive index, 303.15 K | refractive index, 308.15 K | speed of sound, 298.15 K [m/s] | viscosity, 298.15 K [mPa·s] | viscosity, 303.15 K [mPa·s] | viscosity, 308.15 K [mPa·s]
[1] | 785.66 ± 7.9 | 781.34 ± 7.8 | 776.99 ± 7.8 | – | – | – | 1161 ± 4 | 1.083 ± 0.013 | 0.985 ± 0.012 | 0.8954 ± 0.011
[2] | – | – | – | 1.3608 ± 0.0012 | 1.3589 ± 0.0012 | 1.3563 ± 0.0012 | – | – | – | –

CC1CCCCC1 [methylcyclohexane]
Conditions | mass density, 298.15 K [kg/m3] | mass density, 303.15 K [kg/m3] | mass density, 308.15 K [kg/m3] | refractive index, 298.15 K | refractive index, 303.15 K | refractive index, 308.15 K | speed of sound, 298.15 K [m/s] | viscosity, 298.15 K [mPa·s] | viscosity, 303.15 K [mPa·s] | viscosity, 308.15 K [mPa·s]
[1] | 764.99 ± 7.7 | 760.66 ± 7.6 | 756.3 ± 7.6 | – | – | – | 1217 ± 4 | 0.6757 ± 0.0095 | 0.631 ± 0.0089 | 0.5902 ± 0.0085
[2] | – | – | – | 1.4217 ± 0.0013 | 1.4192 ± 0.0013 | 1.4163 ± 0.0013 | – | – | – | –

CC1CCCCC1 [methylcyclohexane] + CCO
Conditions | mass density, 298.15 K [kg/m3] | mass density, 303.15 K [kg/m3] | mass density, 308.15 K [kg/m3] | refractive index, 298.15 K | refractive index, 303.15 K | refractive index, 308.15 K | speed of sound, 298.15 K [m/s] | viscosity, 298.15 K [mPa·s] | viscosity, 303.15 K [mPa·s] | viscosity, 308.15 K [mPa·s]
[3], x1 = 0.1023 | 779.57 ± 7.8 | 775.21 ± 7.8 | 770.8 ± 7.7 | – | – | – | 1167 ± 4 | 0.9923 ± 0.012 | 0.9068 ± 0.011 | 0.8212 ± 0.01
[3], x1 = 0.2031 | 775.92 ± 7.8 | 771.51 ± 7.7 | 767.07 ± 7.7 | – | – | – | 1172 ± 4 | 0.9225 ± 0.012 | 0.8458 ± 0.011 | 0.7691 ± 0.0099
[3], x1 = 0.304 | 772.55 ± 7.7 | 768.07 ± 7.7 | 763.6 ± 7.7 | – | – | – | 1178 ± 4 | 0.8558 ± 0.011 | 0.788 ± 0.01 | 0.7202 ± 0.0094
[3], x1 = 0.405 | 770.25 ± 7.7 | 765.74 ± 7.7 | 761.26 ± 7.6 | – | – | – | 1183 ± 4 | 0.808 ± 0.01 | 0.7464 ± 0.0098 | 0.6848 ± 0.0091
[3], x1 = 0.5061 | 768.4 ± 7.7 | 763.87 ± 7.7 | 759.36 ± 7.6 | – | – | – | 1189 ± 4 | 0.7632 ± 0.01 | 0.7079 ± 0.0094 | 0.6525 ± 0.0088
[3], x1 = 0.6029 | 767.13 ± 7.7 | 762.62 ± 7.6 | 758.09 ± 7.6 | – | – | – | 1195 ± 4 | 0.7293 ± 0.0097 | 0.677 ± 0.0091 | 0.6248 ± 0.0085
[3], x1 = 0.6998 | 766.01 ± 7.7 | 761.51 ± 7.6 | 756.97 ± 7.6 | – | – | – | 1200 ± 4 | 0.6984 ± 0.0094 | 0.6477 ± 0.0089 | 0.5971 ± 0.0083
[3], x1 = 0.8016 | 765.34 ± 7.7 | 760.87 ± 7.6 | 756.37 ± 7.6 | – | – | – | 1206 ± 4 | 0.6857 ± 0.0094 | 0.6392 ± 0.0089 | 0.5927 ± 0.0083
[3], x1 = 0.9034 | 764.79 ± 7.7 | 760.27 ± 7.6 | 755.77 ± 7.6 | – | – | – | 1212 ± 4 | 0.6762 ± 0.0094 | 0.6323 ± 0.0089 | 0.5884 ± 0.0084
[3], x1 = 1 | 764.99 ± 7.7 | 760.66 ± 7.6 | 756.3 ± 7.6 | – | – | – | 1217 ± 4 | 0.6757 ± 0.0095 | 0.631 ± 0.0089 | 0.5902 ± 0.0085
[4], x1 = 0.1023 | – | – | – | 1.371 ± 0.0012 | 1.3686 ± 0.0012 | 1.3662 ± 0.0012 | – | – | – | –
[4], x1 = 0.2031 | – | – | – | 1.3796 ± 0.0012 | 1.3764 ± 0.0012 | 1.3744 ± 0.0012 | – | – | – | –
[4], x1 = 0.304 | – | – | – | 1.3881 ± 0.0012 | 1.3853 ± 0.0012 | 1.3825 ± 0.0012 | – | – | – | –
[4], x1 = 0.405 | – | – | – | 1.3949 ± 0.0012 | 1.3921 ± 0.0012 | 1.3893 ± 0.0012 | – | – | – | –
[4], x1 = 0.5061 | – | – | – | 1.4017 ± 0.0012 | 1.3989 ± 0.0012 | 1.3961 ± 0.0012 | – | – | – | –
[4], x1 = 0.6029 | – | – | – | 1.4068 ± 0.0012 | 1.4038 ± 0.0012 | 1.4008 ± 0.0012 | – | – | – | –
[4], x1 = 0.6998 | – | – | – | 1.412 ± 0.0012 | 1.4087 ± 0.0012 | 1.4054 ± 0.0012 | – | – | – | –
[4], x1 = 0.8016 | – | – | – | 1.417 ± 0.0013 | 1.4135 ± 0.0013 | 1.41 ± 0.0013 | – | – | – | –
[4], x1 = 0.9034 | – | – | – | 1.4192 ± 0.0013 | 1.4169 ± 0.0013 | 1.4146 ± 0.0013 | – | – | – | –
[4], x1 = 1 | – | – | – | 1.4217 ± 0.0013 | 1.4192 ± 0.0013 | 1.4163 ± 0.0013 | – | – | – | –

CCCO [propan-1-ol]
Conditions | mass density, 298.15 K [kg/m3] | mass density, 303.15 K [kg/m3] | mass density, 308.15 K [kg/m3] | refractive index, 298.15 K | refractive index, 303.15 K | refractive index, 308.15 K | speed of sound, 298.15 K [m/s] | viscosity, 298.15 K [mPa·s] | viscosity, 303.15 K [mPa·s] | viscosity, 308.15 K [mPa·s]
[1] | 809.65 ± 8.1 | 805.5 ± 8.1 | 801.32 ± 8 | – | – | – | 1206 ± 4 | 2.077 ± 0.024 | 1.809 ± 0.022 | 1.595 ± 0.019
[2] | – | – | – | 1.384 ± 0.0012 | 1.3819 ± 0.0012 | 1.38 ± 0.0012 | – | – | – | –

CCCO [propan-1-ol] + CC1CCCCC1
x2 = 0
Conditions | mass density, 298.15 K [kg/m3] | mass density, 303.15 K [kg/m3] | mass density, 308.15 K [kg/m3] | refractive index, 298.15 K | refractive index, 303.15 K | refractive index, 308.15 K | speed of sound, 298.15 K [m/s] | viscosity, 298.15 K [mPa·s] | viscosity, 303.15 K [mPa·s] | viscosity, 308.15 K [mPa·s]
[3] | 809.65 ± 8.1 | 805.5 ± 8.1 | 801.32 ± 8 | – | – | – | 1206 ± 4 | 2.077 ± 0.024 | 1.809 ± 0.022 | 1.595 ± 0.019
[4] | – | – | – | 1.384 ± 0.0012 | 1.3819 ± 0.0012 | 1.38 ± 0.0012 | – | – | – | –

CC(C)O [propan-2-ol]
Conditions | mass density, 298.15 K [kg/m3] | mass density, 303.15 K [kg/m3] | mass density, 308.15 K [kg/m3] | refractive index, 298.15 K | refractive index, 303.15 K | refractive index, 308.15 K | speed of sound, 298.15 K [m/s] | viscosity, 298.15 K [mPa·s] | viscosity, 303.15 K [mPa·s] | viscosity, 308.15 K [mPa·s]
[1] | 781.05 ± 7.8 | 776.79 ± 7.8 | 772.43 ± 7.7 | – | – | – | 1144 ± 4 | 2.076 ± 0.024 | 1.786 ± 0.021 | 1.532 ± 0.018
[2] | – | – | – | 1.3765 ± 0.0012 | 1.3741 ± 0.0012 | 1.3716 ± 0.0012 | – | – | – | –

CC(C)O [propan-2-ol] + CC1CCCCC1
x2 = 0
Conditions | mass density, 298.15 K [kg/m3] | mass density, 303.15 K [kg/m3] | mass density, 308.15 K [kg/m3] | refractive index, 298.15 K | refractive index, 303.15 K | refractive index, 308.15 K | speed of sound, 298.15 K [m/s] | viscosity, 298.15 K [mPa·s] | viscosity, 303.15 K [mPa·s] | viscosity, 308.15 K [mPa·s]
[3] | 781.05 ± 7.8 | 776.79 ± 7.8 | 772.43 ± 7.7 | – | – | – | 1144 ± 4 | 2.076 ± 0.024 | 1.786 ± 0.021 | 1.532 ± 0.018
[4] | – | – | – | 1.3765 ± 0.0012 | 1.3741 ± 0.0012 | 1.3716 ± 0.0012 | – | – | – | –
